Assay results as given in patent US7781580B2, “Stilbene derivatives as new cancer therapeutic agents” (Virginia Commonwealth University, priority 2007, dated 2010).
Read-outs that look alike come from different tables or passages of the source.

Tests used:
Chk2−/− cells = assay: cell cycle analysis, Chk2-/- MDA-MB231 derivative; type: cell-based
Procedure: Cells were treated with various concentrations of stilbene 4a or CA4 for 16 hours followed by PI staining and FACscan analysis. […] A unique feature of stilbene 4a was noted when cells were treated with 30 nM.
Due to the structural similarity between stilbene 4a and CA4, we investigated the difference in the biological activity of these two compounds in MDA-MB231 breast cancer cells and their Chk2−/− derivatives. […] MDA-MB231 cells were treated with 10 nM stilbene 4a or 1 nM CA4. […] However, a difference in cell cycle change was observed following treatment with 30 nM of stilbene 4a versus 3 nM of CA4. […] This was also the case for cells treated with 100 nM stilbene 4a. A significant subG1/0 population was also noted. […] One possible effect could be a DNA damage response, which is a common mechanism of multiple chemotherapeutic agents but not one of pure microtubule-interfering agents such a paclitaxel or vincristine. […] We then obtained conditional Chk1−/− and Chk2−/− cells, which were derived from the same MDA-MB231 cells for the same flow cytometry analysis. […] In contrast, Chk2−/− cells were more sensitive to stilbene 4a. […] This mechanism is not obvious in higher drug concentrations at which the G2 arrest from microtubule interference is dominant. Therefore, in addition to their microtubule interfering effect, stilbenes have another mechanism to induce cell death. Thus, the use of a Chk2 inhibitor in combination with stilbenes may be a viable approach to enhancing the beneficial therapeutic effects of stilbenes.

[1] = test system: SNU423 hepatocellular carcinoma cells; assay: Alamar Blue cell growth inhibition, SNU423; type: cell-based
In short: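 Cells at 50% confluence were treated for 48 h in triplicate with 0-10 μM compound or 0.1% DMSO vehicle. Alamar Blue was added at 1/10 volume for 2 h, and absorbance at 570 and 600 nm gave % growth via the manufacturer's extinction-coefficient formula relative to vehicle controls.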

[2] = test system: tubulin (colchicine site); assay: [3H]-colchicine competition for binding tubulin; conditions: 20 min, 37° C.
Procedure: FIG. 3a-d. […] (a) Effect of stilbene 4a. Pure tubulin was incubated with various concentrations of stilbene 4a, 10 μM nocodazole, and 10 μM paclitaxel in the polymerization buffer. The OD at 340 nm was monitored every minute by SpectraMAX 250 and plotted against time. (b) Effect of stilbene 4c. (c) Comparison of same concentrations of stilbenes 4a, 4a trans, 4c and 4c trans with control. […] The radioactivity of the tubulin was counted. […] All experiments were done in triplicates.
Tubulin retained in the Microcon was washed three times with PBS. The radioactivity of the final concentrated tubulin was determined by a scintillation counter.

[3] = test system: UCI101 ovarian cancer cells; assay: Western blot of signal transduction events, UCI101; type: cell-based
In short: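 UCI101 cells exposed to 0.1 μM compound for 0, 4, 8, 16 and 36 h, then harvested and analysed by Western blot. Probes covered G2-M regulators Cdc2, Cdc25c and BubR1, plus Akt phosphorylation.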

[4] = water solubility of stilbene and carbamate prodrug (salts and free base); type: physicochemical; conditions: for solubility: water, 20 °C, 20° C.
Procedure: Stilbene prodrugs may be made by attaching to a stilbene derivative of interest (e.g. a stilbene derivative with anti-tumor activity), chemical groups (or moieties) that render the stilbene derivative more water soluble than before such a modification is carried out. By “water soluble” we mean that more than 20 mg compound can be fully dissolved in 1 mL of water. Further, the chemical groups that are attached to the stilbene derivative to make the derivative water soluble are labile (i.e. removable) in that, upon exposure to in vitro or in vivo hydrolyzing conditions, the chemical groups are removed or dissociated from the stilbene derivative by hydrolysis, releasing the active, anti-tumor form of the stilbene derivative. The chemical groups which are attached may themselves be biologically active, and are, at least, not biologically injurious to cells or mammals. […] As illustrated, morfolinoethyl-urea, morfolinoethyl-carbamate and triethylene glycol (TEG) groups (5a, 5b, 5c, respectively) may be used for this purpose.

COc1cc(/C=C\c2ccc(OC)c(N)c2)cc(OC)c1 [4a, (Z)-5-[2-(3,5-Dimethoxy-phenyl)-vinyl]-2-methoxy-phenylamine]
cell cycle change at 10 nM (Chk2−/− cells; 10 nM): a significant subG1/0 population developed without G2 arrest
change of effective concentration versus MDA-MB231 (Chk2−/− cells; 16 hours): decreased by three fold
relative potency ([1]; SNU423): much more potent than the trans counterparts
effective concentration, blocking cell proliferation ([1]; SNU423, 48 hours): 0.03 µM
competition with [3H]-colchicine for tubulin [2]: dose-dependent suppression of tubulin-colchicine interaction
phosphorylation of Stat3 ([3]; 0.1 μM): transient increase in phosphorylation at 4 and 8 hours
phosphorylation of Cdc2 at Tyr15 ([3]; 0.1 μM, 16 hours): decreased dramatically
phosphorylation of Chk1 ([3]; 36 hours): increased uniquely at 36 hours
water solubility (in words) [4]: limited solubility
solubility ([4]; HCl salt, read-out: water solubility, x HCl): 6000 µg/mL
solubility ([4]; free base, read-out: water solubility, Free base): < 1000 µg/mL
solubility ([4]; oxalate salt, read-out: water solubility, x (COOH)2): < 1000 µg/mL
